Laboratory results: US8546381B2, “Bridged heterocyclic compounds and methods of use” (Medivation Technologies, Inc., priority 2008, dated 2013)

Legend:
[1] = target: T1, human recombinant histamine H1 receptor (Homo sapiens, UniProt P35367); experiment: Histamine H1 radioligand binding ([3H]Pyrilamine); conditions: compound at 1 μM; inhibition of specific [3H]Pyrilamine binding; read-out: Histamine Binding (1 μM) H1, Percentage Inhibition
T1 construct: expressed in transfected cells; host or cells: CHO cells
T1 sequence (P35367 whole entry): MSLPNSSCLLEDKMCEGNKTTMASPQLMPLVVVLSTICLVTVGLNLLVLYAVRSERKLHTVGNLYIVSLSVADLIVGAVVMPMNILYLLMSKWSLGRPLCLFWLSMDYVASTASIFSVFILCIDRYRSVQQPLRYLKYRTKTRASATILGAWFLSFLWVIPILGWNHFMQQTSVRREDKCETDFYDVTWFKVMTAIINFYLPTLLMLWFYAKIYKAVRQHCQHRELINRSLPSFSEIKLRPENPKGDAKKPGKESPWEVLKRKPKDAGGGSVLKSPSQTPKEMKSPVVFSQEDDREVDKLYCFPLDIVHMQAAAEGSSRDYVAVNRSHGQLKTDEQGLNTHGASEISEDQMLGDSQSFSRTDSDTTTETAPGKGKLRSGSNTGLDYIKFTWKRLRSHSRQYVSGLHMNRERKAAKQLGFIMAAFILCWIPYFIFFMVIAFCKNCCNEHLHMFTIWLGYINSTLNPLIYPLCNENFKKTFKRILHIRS
Method: To evaluate in radioligand binding assays the activity of compounds of the invention, human recombinant histamine H1 receptor expressed in Chinese hamster ovary (CHO) cells (De Backer, M. D. et al., Biochem. Biophys. Res. Comm. 197(3):1601, 1993) in a modified Tris-HCl buffer (50 mM Tris-HCl, pH 7.4, 2 mM MgCl2, 100 mM NaCl, 250 mM Sucrose) was used. Compounds of the invention were incubated with 1.2 nM [^3H]Pyrilamine for 180 minutes at 25° C. Non-specific binding was estimated in the presence of 1 μM pyrilamine. Receptor proteins were filtered and washed, the filters were then counted to determine [^3H]Pyrilamine specifically bound. Compounds were screened at 1 μM or lower, using 1% DMSO as vehicle. Biochemical assay results are presented as the percent inhibition of specific binding in Table 2.

[2] = target: T2, human recombinant histamine H2 receptor (Homo sapiens, UniProt P25021); experiment: Histamine H2 radioligand binding ([125I]Aminopotentidine); conditions: compound at 1 μM; inhibition of specific [125I]Aminopotentidine binding; read-out: Histamine Binding (1 μM) H2, Percentage Inhibition
T2 construct: expressed in transfected cells; host or cells: CHO-K1 cells
T2 sequence (P25021 whole entry): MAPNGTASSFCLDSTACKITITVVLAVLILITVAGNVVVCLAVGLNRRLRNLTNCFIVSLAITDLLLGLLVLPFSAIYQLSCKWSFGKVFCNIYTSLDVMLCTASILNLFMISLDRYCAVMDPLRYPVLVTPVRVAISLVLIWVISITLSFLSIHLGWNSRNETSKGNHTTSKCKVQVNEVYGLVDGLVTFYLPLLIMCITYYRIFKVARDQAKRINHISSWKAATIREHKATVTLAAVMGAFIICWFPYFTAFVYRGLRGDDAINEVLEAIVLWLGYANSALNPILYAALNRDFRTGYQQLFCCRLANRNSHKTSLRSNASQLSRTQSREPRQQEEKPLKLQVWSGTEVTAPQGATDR
Method: To evaluate in radioligand binding assays the activity of compounds of the invention, human recombinant histamine H2 receptor expressed in Chinese hamster ovary (CHO) K1 cells (Ruat, M., Proc. Natl. Acad. Sci. USA. 87(5):1658, 1990) in a 50 mM Phosphate buffer, pH 7.4 was used. Compounds of the invention were incubated with 0.1 nM [^125I]Aminopotentidine for 120 minutes at 25° C. Non-specific binding was estimated in the presence of 3 μM Tiotidine. Receptor proteins were filtered and washed, the filters were then counted to determine [^125I]Aminopotentidine specifically bound. Compounds were screened at 1 μM or lower, using 1% DMSO as vehicle. Biochemical assay results are presented as the percent inhibition of specific binding in Table 2.

[3] = target: T3, human recombinant dopamine D2L receptor (Homo sapiens, UniProt P14416); experiment: Dopamine D2L radioligand binding ([3H]Spiperone); conditions: read-out: Dopamine (1 μM) D2L, inhibition of ligand binding
T3 construct: expressed in transfected cells; host or cells: CHO cells
T3 sequence (P14416 whole entry): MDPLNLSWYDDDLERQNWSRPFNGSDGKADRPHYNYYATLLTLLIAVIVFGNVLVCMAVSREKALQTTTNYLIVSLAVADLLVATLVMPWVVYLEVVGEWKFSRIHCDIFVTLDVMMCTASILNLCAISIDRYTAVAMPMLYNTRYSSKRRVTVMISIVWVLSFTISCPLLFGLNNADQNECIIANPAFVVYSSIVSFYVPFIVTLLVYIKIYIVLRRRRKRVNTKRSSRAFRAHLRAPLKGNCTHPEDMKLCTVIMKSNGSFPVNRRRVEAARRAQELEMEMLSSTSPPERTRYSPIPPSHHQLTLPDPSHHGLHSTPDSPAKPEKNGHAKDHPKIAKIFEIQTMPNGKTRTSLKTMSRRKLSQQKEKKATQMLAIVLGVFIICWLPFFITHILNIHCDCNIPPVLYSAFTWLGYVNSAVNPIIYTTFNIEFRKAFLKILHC
Method: To evaluate in radioligand binding assays the activity of compounds of the invention, human recombinant dopamine D2L receptor expressed in Chinese hamster ovary (CHO) cells (Grandy, D. K. et al. Proc. Natl. Acad. Sci. USA. 86:9762, 1989; Hayes, G. et al., Mol. Endocrinol. 6:920, 1992) in a modified Tris-HCl buffer (50 mM Tris-HCl, pH 7.4, 1.4 mM Ascorbic Acid, 0.001% BSA, 150 mM NaCl) was used. Compounds of the invention were incubated with 0.16 nM [^3H]Spiperone for 120 minutes at 25° C. Non-specific binding was estimated in the presence of 10 μM Haloperidol. Receptor proteins were filtered and washed, the filters were then counted to determine [^3H]Spiperone specifically bound. Compounds were screened at 1 μM or lower, using 1% DMSO as vehicle. Biochemical assay results are presented as the percent inhibition of specific binding in Table 3.

[4] = target: T4, human recombinant serotonin (5-Hydroxytryptamine) 5-HT2A receptor (Homo sapiens, UniProt P28223); experiment: Serotonin 5-HT2A radioligand binding ([3H]Ketanserin); conditions: read-out: Serotonin 5-HT2A, inhibition of ligand binding (1 μM)
T4 construct: expressed in transfected cells; host or cells: CHO-K1 cells
T4 sequence (P28223 whole entry): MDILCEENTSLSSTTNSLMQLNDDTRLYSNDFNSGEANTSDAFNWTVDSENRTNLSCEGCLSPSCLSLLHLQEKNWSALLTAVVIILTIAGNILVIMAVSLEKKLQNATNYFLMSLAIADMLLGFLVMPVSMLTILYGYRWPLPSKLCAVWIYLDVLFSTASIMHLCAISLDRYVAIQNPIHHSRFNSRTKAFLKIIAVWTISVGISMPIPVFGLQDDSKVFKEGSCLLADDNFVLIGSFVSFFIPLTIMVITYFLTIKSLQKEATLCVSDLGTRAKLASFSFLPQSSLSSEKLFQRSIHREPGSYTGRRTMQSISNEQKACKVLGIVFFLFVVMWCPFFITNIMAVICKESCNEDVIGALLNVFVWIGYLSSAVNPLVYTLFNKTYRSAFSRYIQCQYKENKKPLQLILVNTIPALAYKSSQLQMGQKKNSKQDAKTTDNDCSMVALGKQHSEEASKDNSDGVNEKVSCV
Method: To evaluate in radioligand binding assays the activity of compounds of the invention, human recombinant serotonin (5-Hydroxytryptamine) 5-HT2A receptor expressed in Chinese hamster ovary (CHO-K1) cells (Bonhaus, D. W. et al. Br. J. Pharmacol. 115:622, 1995; Saucier, C. and Albert, P. R., J. Neurochem. 68:1998, 1997) in a 50 mM Tris-HCl buffer, pH 7.4, was used. Compounds of the invention were incubated with 0.5 nM [^3H]Ketanserin for 60 minutes at 25° C. Non-specific binding was estimated in the presence of 1 μM Mianserin. Receptor proteins were filtered and washed, the filters were then counted to determine [^3H]Ketanserin specifically bound. Compounds were screened at 1 μM or lower, using 1% DMSO as vehicle. Biochemical assay results are presented as the percent inhibition of specific binding in Table 4.

[5] = target: T5, human recombinant serotonin (5-Hydroxytryptamine) 5-HT2C receptor (Homo sapiens, UniProt P28335); experiment: Serotonin 5-HT2C radioligand binding ([3H]Mesulergine); conditions: read-out: Serotonin 5-HT2C, inhibition of ligand binding (1 μM)
T5 construct: expressed in transfected cells; host or cells: CHO-K1 cells
T5 sequence (P28335 33-458): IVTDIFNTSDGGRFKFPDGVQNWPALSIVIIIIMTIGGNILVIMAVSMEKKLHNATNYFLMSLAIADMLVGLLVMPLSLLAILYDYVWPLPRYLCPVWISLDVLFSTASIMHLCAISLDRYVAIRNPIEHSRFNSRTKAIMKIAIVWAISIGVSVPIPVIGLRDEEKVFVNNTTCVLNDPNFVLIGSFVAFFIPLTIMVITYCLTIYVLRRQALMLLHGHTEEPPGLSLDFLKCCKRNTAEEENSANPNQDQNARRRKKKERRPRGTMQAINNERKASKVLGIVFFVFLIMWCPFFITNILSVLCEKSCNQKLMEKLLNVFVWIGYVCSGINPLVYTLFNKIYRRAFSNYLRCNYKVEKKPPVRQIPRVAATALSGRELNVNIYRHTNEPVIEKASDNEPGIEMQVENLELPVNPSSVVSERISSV
Method: To evaluate in radioligand binding assays the activity of compounds of the invention, human recombinant serotonin (5-Hydroxytryptamine) 5-HT2C receptor expressed in Chinese hamster ovary (CHO-K1) cells (Wolf, W. A. and Schutz, J. S., J. Neurochem. 69:1449, 1997) in a modified Tris-HCl buffer (50 mM Tris-HCl, pH 7.4, 0.1% Ascorbic Acid, 10 μM Pargyline) was used. Compounds of the invention were incubated with 1 nM [^3H]Mesulergine for 60 minutes at 25° C. Non-specific binding was estimated in the presence of 1 μM Mianserin. Receptor proteins were filtered and washed, the filters were then counted to determine [^3H]Mesulergine specifically bound. Compounds were screened at 1 μM or lower, using 1% DMSO as vehicle. Biochemical assay results are presented as the percent inhibition of specific binding in Table 4.

[6] = target: T6, human recombinant serotonin (5-Hydroxytryptamine) 5-HT6 receptor (Homo sapiens, UniProt P50406); experiment: Serotonin 5-HT6 radioligand binding ([3H]LSD); conditions: read-out: Serotonin 5-HT6, inhibition of ligand binding (1 μM)
T6 construct: expressed in transfected cells; host or cells: human HeLa cells
T6 sequence (P50406 whole entry): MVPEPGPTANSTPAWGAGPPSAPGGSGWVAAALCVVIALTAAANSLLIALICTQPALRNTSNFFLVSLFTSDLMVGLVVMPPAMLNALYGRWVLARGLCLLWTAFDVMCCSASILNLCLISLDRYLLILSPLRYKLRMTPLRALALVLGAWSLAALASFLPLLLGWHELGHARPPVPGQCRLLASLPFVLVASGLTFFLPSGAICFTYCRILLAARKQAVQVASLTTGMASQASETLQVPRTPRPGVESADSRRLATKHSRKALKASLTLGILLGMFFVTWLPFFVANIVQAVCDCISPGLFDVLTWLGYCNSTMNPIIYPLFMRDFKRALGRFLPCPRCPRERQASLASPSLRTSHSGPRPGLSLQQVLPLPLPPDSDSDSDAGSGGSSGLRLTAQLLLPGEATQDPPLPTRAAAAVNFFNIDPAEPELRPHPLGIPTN
Method: To evaluate in radioligand binding assays the activity of compounds of the invention, human recombinant serotonin (5-Hydroxytryptamine) 5-HT6 receptor expressed in human HeLa cells (Monsma, F. J. Jr. et al., Mol. Pharmacol. 43:320, 1993) in a modified Tris-HCl buffer (50 mM Tris-HCl, pH 7.4, 150 mM NaCl, 2 mM Ascorbic Acid, 0.001% BSA) was used. Compounds of the invention were incubated with 1.5 nM [3H]Lysergic acid diethylamide (LSD) for 120 minutes at 37° C. Non-specific binding was estimated in the presence of 5 μM Serotonin (5-HT). Receptor proteins were filtered and washed, the filters were then counted to determine [3H]LSD specifically bound. Compounds were screened at 1 μM or lower, using 1% DMSO as vehicle. Biochemical assay results are presented as the percent inhibition of specific binding in Table 4.

[7] = target: T7, human recombinant serotonin (5-Hydroxytryptamine) 5-HT7 receptor (Homo sapiens, UniProt P34969); experiment: Serotonin 5-HT7 radioligand binding ([3H]LSD); conditions: read-out: Serotonin 5-HT7, inhibition of ligand binding (1 μM)
T7 construct: expressed in transfected cells; host or cells: CHO cells
T7 sequence (P34969 whole entry): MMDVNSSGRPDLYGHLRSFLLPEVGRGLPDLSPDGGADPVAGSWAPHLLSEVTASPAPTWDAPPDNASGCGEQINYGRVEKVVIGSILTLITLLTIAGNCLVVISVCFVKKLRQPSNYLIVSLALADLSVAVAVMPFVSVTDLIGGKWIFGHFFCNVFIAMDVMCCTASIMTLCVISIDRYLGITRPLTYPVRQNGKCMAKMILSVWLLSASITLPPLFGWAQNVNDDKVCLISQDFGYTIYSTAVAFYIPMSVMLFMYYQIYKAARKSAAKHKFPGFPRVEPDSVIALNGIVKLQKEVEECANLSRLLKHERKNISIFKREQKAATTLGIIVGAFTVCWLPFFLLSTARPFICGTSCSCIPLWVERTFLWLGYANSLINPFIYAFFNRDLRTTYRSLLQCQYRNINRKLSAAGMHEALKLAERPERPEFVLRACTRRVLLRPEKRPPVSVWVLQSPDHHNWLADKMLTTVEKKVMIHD
Method: To evaluate in radioligand binding assays the activity of compounds of the invention, human recombinant serotonin (5-Hydroxytryptamine) 5-HT7 receptor expressed in Chinese hamster ovary (CHO) cells (Roth, B. L. et al., J. Pharmacol. Exp. Ther. 268:1403, 1994; Shen, Y. et al., J. Biol. Chem. 268:18200, 1993) in a modified Tris-HCl buffer (50 mM Tris-HCl, pH 7.4, 10 mM MgCl2, 0.5 mM EDTA) was used. Compounds of invention were incubated with 5.5 nM [^3H] Lysergic acid diethylamide (LSD) for 2 hours at 25° C. Non-specific binding was estimated in the presence of 10 μM Serotonin (5-HT). Receptor proteins were filtered and washed, the filters were then counted to determine [^3H]LSD specifically bound. Compounds were screened at 1 μM or lower, using 1% DMSO as vehicle. Biochemical assay results are presented as the percent inhibition of specific binding in Table 4.

`C/C(=C\n1c2c(c3cc(Cl)ccc31)C1CCC(C2)N1C)c1cccnc1` (centres unmarked) [Compound 128] gave an inhibition at 1 µM [1] of 15%, an inhibition at 1 µM [2] of 21% and an inhibition at 1 µM [3] of 21%. For the same compound, the inhibition at 1 µM [4] was 91%, the inhibition at 1 µM [5] was 77% and the inhibition at 1 µM [6] was 62%. It also gave an inhibition at 1 µM [7] of 66%.

`C/C(=C\n1c2c(c3cc(C)ccc31)C1CCC(C2)N1C)c1cccnc1` (centres unmarked) [Compound 129] showed an inhibition at 1 µM [1] of 5%, an inhibition at 1 µM [2] of 26% and an inhibition at 1 µM [3] of 8%. The inhibition at 1 µM [4] was 88%, the inhibition at 1 µM [5] was 72% and the inhibition at 1 µM [6] was 19%. It also gave an inhibition at 1 µM [7] of 80%.

For `C/C(=C\n1c2c(c3cc(Cl)ccc31)C1CCC(C2)N1C)c1ccc(Cl)c(Cl)c1` (centres unmarked) [Compound 132], the inhibition at 1 µM [1] was 87%, the inhibition at 1 µM [2] was 99% and the inhibition at 1 µM [4] was 100%. The inhibition at 1 µM [5] was 95%, the inhibition at 1 µM [6] was 31% and the inhibition at 1 µM [7] was 81%.

`COc1ccc(C#Cn2c3c(c4cc(Cl)ccc42)C2CCC(C3)N2C)cc1F` (centres unmarked) [Compound 154] was tested, and the inhibition at 1 µM [1] was 30%, the inhibition at 1 µM [2] was 87% and the inhibition at 1 µM [3] was 13%. For the same compound, the inhibition at 1 µM [4] was 96%, the inhibition at 1 µM [5] was 97% and the inhibition at 1 µM [6] was 31%. The inhibition at 1 µM [7] was 21%.

Compound `COc1ccc(C#Cn2c3c(c4cc(C)ccc42)C2CCC(C3)N2C)cc1F` (centres unmarked) [Compound 155] has an inhibition at 1 µM [1] of 10%, an inhibition at 1 µM [2] of 84% and an inhibition at 1 µM [3] of 10%. For the same compound, the inhibition at 1 µM [4] was 100%, the inhibition at 1 µM [5] was 99% and the inhibition at 1 µM [6] was 49%. It also gave an inhibition at 1 µM [7] of 24%.

`C/C(=C\n1c2c(c3cc(C)ccc31)C1CCC(C2)N1C)c1ccccc1F` (centres unmarked) [Compound 164] was tested, and the inhibition at 1 µM [1] was 65%, the inhibition at 1 µM [2] was 41% and the inhibition at 1 µM [3] was 12%. It also gave an inhibition at 1 µM [4] of 94%, an inhibition at 1 µM [5] of 93% and an inhibition at 1 µM [6] of 57%. The inhibition at 1 µM [7] was 96%.
